Type in all cases: cell-based
One experiment has as its system bacteria. Kind of experiment: In vitro antibacterial potency. Conditions: compared with corresponding compound lacking 2-methyl group (BB-S515).
The subject of experiment [1] is E. coli. Kind of experiment: In vitro antibacterial activity, Mueller-Hinton agar serial dilution (Table 1). Conditions: Escherichia coli, 7 strains, serial dilution method, read-out: Geometric Mean of MIC. The source says:
(§1) In vitro Activity Using Mueller-Hinton Agar
(§2) By the Serial Dilution Method

In another experiment the test system is S. viridans. The experiment is described as above. The note with it: Streptococcus viridans, 5 strains, serial dilution method, read-out: Geometric Mean of MIC.
Excerpt: as §1, §2

In another experiment the test system is N. gonorrhoeae. The experiment is described as above. The note with it: Neisseria gonorrhoeae, 5 strains, serial dilution method, read-out: Geometric Mean of MIC.
Excerpt: as §1, §2

A further experiment deals with D. pneumoniae. The experiment is described as above. Conditions: Streptococcus pneumoniae, 5 strains, serial dilution method, read-out: Geometric Mean of MIC.
Excerpt: as §1, §2

The test system of experiment [2] is Shig.(3), Serr.(1) Enterab.(1), Sal.(2) B. -B. (1). Described as above. The note with it: pooled Shig.(3), serial dilution method, read-out: Geometric Mean of MIC.
Excerpt: as §1, §2

The subject of a further experiment is S. pyogenes. The description is as above. The note with it: Streptococcus pyogenes, read-out: Geometric Mean of MIC.
Excerpt: as §1, §2

For a further experiment, the system named is N. meningitidis. Described as above. The note with it: Neisseria meningitidis, 5 strains, serial dilution method, read-out: Geometric Mean of MIC.
Excerpt: as §1, §2

A further experiment concerns H. influenzae. The description is as above. Conditions: Haemophilus influenzae, 7 strains, serial dilution method, read-out: Geometric Mean of MIC.
Excerpt: as §1, §2

In another experiment the test system is S. aureus. Described as above. The note with it: Staphylococcus aureus, 3 strains, serial dilution method, read-out: Geometric Mean of MIC.
Excerpt: as §1, §2

The subject of a further experiment is Proteus. The experiment is described as above. The note with it: read-out: Geometric Mean of MIC.
Excerpt: as §1, §2

Another experiment deals with Kl. pneumoniae. The experiment is described as above. Conditions: Klebsiella pneumoniae, 4 strains, serial dilution method, read-out: Geometric Mean of MIC.
Excerpt: as §1, §2

A further experiment concerns Indole (-) Proteus. Kind of experiment: MIC on Mueller-Hinton agar (Table 2). Conditions: 2 strains, read-out: Geometric Means of MIC's. The source says: (§3) Geometric Means of MIC's Against 3 Strains
(§4) of S. aureus and 27 Strains of Gram-negative Bacteria
(§5) (mcg./ml., Mueller-Hinton Agar)

Experiment [3] has as its system E. coli. Briefly: MIC on Mueller-Hinton agar (Table 2). Conditions: Escherichia coli, 6 strains, read-out: Geometric Means of MIC's.
Excerpt: as §3, §4, §5

The subject of a further experiment is E. coli, Cephalosporin-R. Briefly: MIC on Mueller-Hinton agar (Table 2). The note with it: Escherichia coli, 1 strain, read-out: Geometric Means of MIC's.
Excerpt: as §3, §4, §5

A further experiment concerns K. pneumoniae. Kind of experiment: MIC on Mueller-Hinton agar (Table 2). Conditions: Klebsiella pneumoniae, 4 strains, read-out: Geometric Means of MIC's.
Excerpt: as §3, §4, §5

The next experiment concerns E. cloacae. Briefly: MIC on Mueller-Hinton agar (Table 2). The note with it: Enterobacter cloacae, 1 strain, read-out: Geometric Means of MIC's.
Excerpt: as §3, §4, §5

In experiment [4] the test system is Indole (+) Proteus, Cephalosporin-R. Kind of experiment: MIC on Mueller-Hinton agar (Table 2). Conditions: 2 strains, read-out: Geometric Means of MIC's.
Excerpt: as §3, §4, §5

The next experiment relates to Shigella, Salmonella. Briefly: MIC on Mueller-Hinton agar (Table 2). Conditions: 5 strains, read-out: Geometric Means of MIC's.
Excerpt: as §3, §4, §5

Experiment [5] deals with S. marcescens. Briefly: MIC on Mueller-Hinton agar (Table 2). Conditions: Serratia marcescens, 1 strain, read-out: Geometric Means of MIC's.
Excerpt: as §3, §4, §5

The next experiment deals with P. aeruginosa. Kind of experiment: MIC on Mueller-Hinton agar (Table 2). Conditions: Pseudomonas aeruginosa, 2 strains, read-out: Geometric Means of MIC's.
Excerpt: as §3, §4, §5

A further experiment deals with Indole (+) Proteus. Kind of experiment: MIC on Mueller-Hinton agar (Table 2). Conditions: 3 strains, read-out: Geometric Means of MIC's.
Excerpt: as §3, §4, §5

The next experiment relates to S. aureus, Penicillin-R. Briefly: MIC on Mueller-Hinton agar (Table 2). The note with it: Staphylococcus aureus, 2 strains, read-out: Geometric Means of MIC's.
Excerpt: as §3, §4, §5

Experiment [6] relates to S. marcescens. Briefly: MIC against 18 strains of S. marcescens (Table 3). The note with it: Serratia marcescens, read-out: Geometric Means of MIC's. The source says:
| Geometric Means of MIC's Against 18 Strains |of S. marcescens

The structures appear in SMILES notation. Structures can show the parent of a compound that is named as a salt. Where two headings read alike, the source gives them in different places. Bounds are passed on as bounds.

With `CO/N=C(\C(=O)N[C@@H]1C(=O)N2C(C(=O)O)=C(CSc3ccc4nn(C)c(=O)n4n3)CS[C@H]12)c1ccco1` [BB-S510, 7-[(2Z)-2-methoxyimino(fur-2-yl)acetamido]-3-(2-methyl-2,3-dihydro-s-triazolo[4,3-b]pyridazin-3-on-6-ylthiomethyl)-3-cephem-4-carboxylic acid sodium salt], the “in vitro antibacterial potency” value with bacteria is given as “considerably superior”. Besides, the MIC was determined as 2.11 µg/mL in the experiment with E. coli [1]; 0.13 µg/mL with S. viridans; 0.26 µg/mL in the experiment with N. gonorrhoeae; 0.021 µg/mL in the experiment with D. pneumoniae; 6.26 µg/mL in [2]; 0.0125 µg/mL in the experiment on S. pyogenes (5 strains, Mueller-Hinton agar, serial dilution method). For the same molecule, the MIC came out at 1.03 µg/mL in the experiment on N. meningitidis; 0.35 µg/mL in the experiment with H. influenzae; 0.62 µg/mL in the experiment with S. aureus; 1.39 µg/mL with Proteus (6 strains, Mueller-Hinton agar, serial dilution method); 6.3 µg/mL in the experiment on Kl. pneumoniae; 1.1 µg/mL in the experiment with Indole (-) Proteus. Further, the MIC in the experiment with E. coli [3] was 0.1 µg/mL; in the experiment on E. coli, Cephalosporin-R, 3.1 µg/mL; in the experiment with K. pneumoniae, 2.6 µg/mL; in the experiment on E. cloacae it was 3.1 µg/mL; in experiment [4] it was 6.3 µg/mL; in the experiment with Shigella, Salmonella, 0.5 µg/mL. In addition, the MIC in the experiment on S. marcescens [5] was 6.3 µg/mL; with P. aeruginosa, more than 100 µg/mL; with Indole (+) Proteus, 0.2 µg/mL; in the experiment with S. aureus, Penicillin-R, 0.1 µg/mL; in the experiment on S. marcescens [6], 7.9 µg/mL.

Turning to `CO/N=C(\C(=O)N[C@@H]1C(=O)N2C(C(=O)O)=C(CSc3ccc4n[nH]c(=O)n4n3)CS[C@H]12)c1ccco1` [BB-S515, 7-[(2Z)-2-methoxyimino(fur-2-yl)acetamido]-3-(2,3-dihydro-s-triazolo[4,3-b]pyridazin-3-on-6-ylthiomethyl)-3-cephem-4-carboxylic acid sodium salt, reference compound], the MIC worked out at 2.33 µg/mL in the experiment with E. coli [1]; 0.59 µg/mL in the experiment on S. viridans; 2.07 µg/mL with N. gonorrhoeae; 0.1 µg/mL in the experiment on D. pneumoniae; 5.26 µg/mL in experiment [2]; 0.032 µg/mL in the experiment with S. pyogenes. Also, the MIC with N. meningitidis came to 5.45 µg/mL; in the experiment with H. influenzae it was 2.11 µg/mL; in the experiment on S. aureus, 2.48 µg/mL; with Proteus, 1.11 µg/mL; in the experiment with Kl. pneumoniae it was 3.1 µg/mL.

(Values after US4104469A, “7-(Syn-α-alkoxy-iminofuryl)acetamido-3-(2-methyl-2,3-dihydro-s-t riazolo[4,3-b]pyridazin-3-on-6-ylthiomethyl)-3-cephem-4-carboxylic acids” (Bristol-Myers Company, priority 1977, dated 1978).)
